In patent publication US10669289B2, “Boronic acid derivatives” (MERCK PATENT GMBH, priority 2014, dated 2020):

Columns and labels:
[1] = target: human constitutive proteasome (Beta5) (Homo sapiens (Human), UniProt P28074); assay: Determination of Beta5 activity (fluorescence intensity assay, Suc-LLVY-AMC); assay type: biochemical
Procedure, shortened: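 Purified human constitutive proteasome (1.25 nM) preincubated with compounds (30 μM–15 pM) for 20 min (default) or 120 min at 25 °C in 50 mM Tris pH 7.4, 0.03% SDS, 1 mM EDTA, 1% DMSO. Suc-LLVY-AMC substrate at 40 μM, 60 min at 37 °C. Fluorescence read at ex 350/em 450 nm.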

[2] = target: human immuno proteasome (LMP7) (Homo sapiens (Human), UniProt P28062); assay: Determination of LMP7 activity (fluorescence intensity assay, Suc-LLVY-AMC); assay type: biochemical
Procedure, shortened: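 Fluorogenic Suc-LLVY-AMC cleavage (40 μM substrate, 60 min, 37° C., ex 350/em 450 nm) measured after 0.25 nM human immunoproteasome was exposed to compound at 30 μM–15 pM. Preincubation was 20 min by default or 120 min (long) at 25° C., in Tris pH 7.4 with 0.03% SDS, 1 mM EDTA and 1% DMSO.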

[3] = LMP7 versus Beta5, long incubation (120 min)

Row | IC50 ([1]; incubation for 20 minutes) [nM] | Selectivity LMP7 vs Beta5 ([2]; LMP7 versus Beta5, incubation for 20 minutes) | IC50 ([2]; incubation for 20 minutes) [nM] | IC50 ([1]; long incubation (120 min)) [nM] | Selectivity LMP7 vs Beta5 [2, 3] | IC50 ([2]; long incubation (120 min)) [nM] | SMILES
1 | > 5000 | +++++ (Selectivity ≥ 150) | 50 to 500 | – | – | – | C=CC(=O)N(CC(=O)N[C@@H](C[C@H]1COc2c(C)cccc21)B(O)O)c1ccccc1F [Compound No. 91, [(1R)-1-[[2-(2-fluoro-N-prop-2-enoyl-anilino)acetyl]amino]-2-[(3R)-7-methyl-2,3-dihydrobenzofuran-3-yl]ethyl]boronic Acid]
2 | – | – | – | > 5000 | +++++ (Selectivity ≥ 150) | 50 to 500 | C=CC(=O)N(CC(=O)NC(Cc1ccsc1)B(O)O)c1ccccc1CC (stereo not drawn) [Compound No. 93, [1-[[2-(2-ethyl-N-prop-2-enoyl-anilino)acetyl]amino]-2-(3-thienyl)ethyl]boronic Acid]
3 | – | – | – | > 5000 | +++++ (Selectivity ≥ 150) | < 50 | C=CC(=O)N(CC(=O)N[C@@H](Cc1ccsc1)B(O)O)c1cccc(CC)c1 [Compound No. 94, [(1R)-1-[[2-(3-ethyl-N-prop-2-enoyl-anilino)acetyl]amino]-2-(3-thienyl)ethyl]boronic Acid]
4 | – | – | – | > 5000 | +++++ (Selectivity ≥ 150) | < 50 | C=CC(=O)N(CC(=O)N[C@@H](Cc1cccc(F)c1)B(O)O)c1ccccc1F [Compound No. 98, [(1R)-2-(3-fluorophenyl)-1-[[2-(2-fluoro-N-prop-2-enoyl-anilino)acetyl]amino]ethyl]boronic Acid]
5 | – | – | – | 500 to 5000 | +++++ (Selectivity ≥ 150) | < 50 | C=CC(=O)N(CC(=O)N[C@@H](C[C@@H]1COc2ccccc21)B(O)O)c1ccccc1F [Compound No. 100, [(1R)-2-[(3S)-2,3-dihydrobenzofuran-3-yl]-1-[[2-(2-fluoro-N-prop-2-enoyl-anilino)acetyl]amino]ethyl]boronic Acid]
6 | – | – | – | > 5000 | +++++ (Selectivity ≥ 150) | < 50 | C=CC(=O)N(CC(=O)N[C@@H](CCc1ccccc1)B(O)O)c1ccccc1F [Compound No. 101, [(1R)-1-[[2-(2-fluoro-N-prop-2-enoyl-anilino)acetyl]amino]-3-phenyl-propyl]boronic acid]

Second part, the compound before the results:

Row | SMILES | IC50 ([1]; incubation for 20 minutes) [nM] | Selectivity LMP7 vs Beta5 ([2]; LMP7 versus Beta5, incubation for 20 minutes) | IC50 ([2]; incubation for 20 minutes) [nM] | IC50 ([1]; long incubation (120 min)) [nM] | Selectivity LMP7 vs Beta5 [2, 3] | IC50 ([2]; long incubation (120 min)) [nM]
7 | C=CC(=O)N(CC(=O)N[C@@H](Cc1ccsc1)B(O)O)c1ccccc1 [Compound No. 92, [(1R)-1-[[2-(N-prop-2-enoylanilino)acetyl]amino]-2-(3-thienyl)ethyl]boronic Acid] | – | – | – | > 5000 | +++++ (Selectivity ≥ 150) | < 50
8 | C=CC(=O)N(CC(=O)N[C@@H](Cc1ccsc1)B(O)O)c1cc(Cl)cc(Cl)c1 [Compound No. 95, [(1R)-1-[[2-(3,5-dichloro-N-prop-2-enoyl-anilino)acetyl]amino]-2-(3-thienyl)ethyl]boronic Acid] | – | – | – | > 5000 | +++++ (Selectivity ≥ 150) | < 50
9 | C=CC(=O)N(CC(=O)N[C@@H](Cc1ccsc1)B(O)O)c1ccc(CC)cc1 [Compound No. 96, [(1R)-1-[[2-(4-ethyl-N-prop-2-enoyl-anilino)acetyl]amino]-2-(3-thienyl)ethyl]boronic Acid] | – | – | – | 500 to 5000 | +++++ (Selectivity ≥ 150) | < 50
10 | C=CC(=O)N(CC(=O)N[C@@H](Cc1ccsc1)B(O)O)c1ccc(Cl)c(Cl)c1 [Compound No. 97, [(1R)-1-[[2-(3,4-dichloro-N-prop-2-enoyl-anilino)acetyl]amino]-2-(3-thienyl)ethyl]boronic Acid] | – | – | – | > 5000 | +++++ (Selectivity ≥ 150) | < 50
11 | C=CC(=O)N(CC(=O)N[C@@H](Cc1ccsc1)B(O)O)c1ccc(OC)c(OC)c1 [Compound No. 99, [(1R)-1-[[2-(3,4-dimethoxy-N-prop-2-enoyl-anilino)acetyl]-amino]-2-(3-thienyl)ethyl]boronic Acid] | – | – | – | > 5000 | +++++ (Selectivity ≥ 150) | < 50
